According to patent US9643964B2, “3-(2-aminopyrimidin-4-yl)-5-(3-hydroxypropynyl)-1H-pyrrolo[2,3-C]pyridine derivatives as NIK inhibitors for the treatment of cancer” (Janssen Pharmaceutica NV, priority 2013, dated 2017):

Columns and labels:
[1] = target: T1, Recombinant Human NF-kappaB-Inducing Kinase (NIK/MAP3K14) (Homo sapiens, UniProt Q99558); assay: Biological Assay A: inhibition of recombinant human NIK/MAP3K14 activity (MBP phosphorylation, Mesoscale); type: biochemical; details: averaged over all measurements on all batches; read-out: Biochemical (MSD MBP) IC50
Procedure: Inhibition of Recombinant Human NF-kappaB-Inducing Kinase (NIK/MAP3K14) Activity
Assay buffer was 50 mM Tris pH 7.5 containing 1 mM EGTA (ethylene glycol tetraacetic acid), 1 mM DTT (dithiothreitol), 0.1 mM Na3VO4, 5 mM MgCl2, 0.01% Tween 20. Assays were carried out in 384 well Mesoscale high binding plates which had been coated with myelin basic protein (MBP) and blocked with bovine serum albumin to prevent non-specific protein binding. All compounds tested were dissolved in dimethyl sulfoxide (DMSO) and further dilutions were made in assay buffer. Final DMSO concentration was 1% (v/v) in assays. Incubations consisted of compound (1% DMSO in control and blank wells), 25 μM Adenosine-5′-triphosphate (ATP), and 10 nM NIK/MAP3K14 substituting enzyme with buffer in the blank wells. Incubations were carried out for 1 h at 25° C. and were followed by washing and sequential incubation with rabbit anti-phospho-MBP and anti-rabbit Ig Sulfotag antibody before reading bound Sulfotag on a Mesoscale Discovery. Signal obtained in the wells containing blank samples was subtracted from all other wells and IC50's were determined by fitting a sigmoidal curve to % inhibition of control versus Log10 compound concentration.

[2] = target: T1, Recombinant Human NF-kappaB-Inducing Kinase (NIK/MAP3K14); assay: Biological Assay A2: inhibition of auto-phosphorylation of recombinant human NIK/MAP3K14 (AlphaScreen); type: biochemical; details: auto-phosphorylation; averaged over all measurements on all batches; read-out: αscreen IC50
In short: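 GST-tagged NIK/MAP3K14 (0.2 nM) auto-phosphorylation with 25 microM ATP in 50 mM Tris pH 7.5, 5 mM MgCl2, 1% DMSO; 1 h at 25° C. Phospho-IKK Ser176/180 detected by AlphaScreen; blank-subtracted % inhibition fitted sigmoidally vs log concentration for IC50.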

[3] = test system: P-IKKα levels in L363 cells; assay: Biological Assay B: effect of compounds on P-IKKα levels in L363 cells; type: cell-based; details: Homo sapiens, L-363, averaged values, read-out: IKKα Cellular IC50
Procedure: Effect of Compounds on P-IKKα Levels in L363 Cells
All compounds tested were dissolved in DMSO and further dilutions were made in culture medium. Final DMSO concentration was 1% (v/v) in cell assays. The human L363 cells (ATCC) were cultured in RPMI 1640 medium supplemented with GlutaMax and 10% fetal calf serum (PAA). Cells were routinely maintained at densities of 0.2×10^6 cells per ml-1×10^6 cells per ml at 37° C. in a humidified 5% CO2 atmosphere. Cells were passaged twice a week splitting back to obtain the low density. Cells were seeded in 96 well plates (Nunc 167008) at 2×10^6 per ml media in a volume of 75 μl per well plus 25 μl 1 μg/ml recombinant human B-cell activating factor BAFF/B1YS/TNFSF13B. Seeded cells were incubated at 37° C. in a humidified 5% CO2 atmosphere for 24 hr. Drugs and/or solvents were added (20 μl) to a final volume of 120 μl. Following 2 hr treatment plates were removed from the incubator and cell lysis was achieved by the addition of 30 μl 5× lysis buffer followed by shaking on a plate shaker at 4° C. for 10 min. At the end of this incubation lysed cells were centrifuged at 800×g for 20 min at 4° C. and the lysate was assessed for P-IKKα levels by sandwich immuno-assay carried out in anti-rabbit antibody coated Mesoscale plates. Within an experiment, the results for each treatment were the mean of 2 replicate wells. For initial screening purposes, compounds were tested using an 8 point dilution curve (serial 1:3 dilutions). For each experiment, controls (containing MG132 and BAFF but no test drug) and a blank incubation (containing MG132 and BAFF and 10 μM ADS125117, a test concentration known to give full inhibition) were run in parallel. The blank incubation value was subtracted from all control and sample values. To determine the IC50 a sigmoidal curve was fitted to the plot of % inhibition of control P-IKKα levels versus Log10 compound concentration.

LP-1 cells = assay: Biological Assay C: antiproliferative activity on LP-1 cells (CellTiter-Glo); type: cell-based, human; details: 72 hr treatment, averaged values
In short: (§1)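 CellTiter-Glo luminescence after 72 h exposure, blank (cells read at compound addition) subtracted, growth expressed as % of untreated control; duplicate wells. Suspension cells in RPMI/10% FCS, 2,000–6,000 cells/well, 0.3% DMSO.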

L-363 cells = assay: Biological Assay C: antiproliferative activity on L-363 cells (CellTiter-Glo); type: cell-based, human; details: 72 hr treatment, averaged values
In short: as §1

JJN-3 cells = assay: Biological Assay C: antiproliferative activity on JJN-3 cells (CellTiter-Glo); type: cell-based, human; details: 72 hr treatment, averaged values
In short: as §1

T1 sequence (Q99558 whole entry): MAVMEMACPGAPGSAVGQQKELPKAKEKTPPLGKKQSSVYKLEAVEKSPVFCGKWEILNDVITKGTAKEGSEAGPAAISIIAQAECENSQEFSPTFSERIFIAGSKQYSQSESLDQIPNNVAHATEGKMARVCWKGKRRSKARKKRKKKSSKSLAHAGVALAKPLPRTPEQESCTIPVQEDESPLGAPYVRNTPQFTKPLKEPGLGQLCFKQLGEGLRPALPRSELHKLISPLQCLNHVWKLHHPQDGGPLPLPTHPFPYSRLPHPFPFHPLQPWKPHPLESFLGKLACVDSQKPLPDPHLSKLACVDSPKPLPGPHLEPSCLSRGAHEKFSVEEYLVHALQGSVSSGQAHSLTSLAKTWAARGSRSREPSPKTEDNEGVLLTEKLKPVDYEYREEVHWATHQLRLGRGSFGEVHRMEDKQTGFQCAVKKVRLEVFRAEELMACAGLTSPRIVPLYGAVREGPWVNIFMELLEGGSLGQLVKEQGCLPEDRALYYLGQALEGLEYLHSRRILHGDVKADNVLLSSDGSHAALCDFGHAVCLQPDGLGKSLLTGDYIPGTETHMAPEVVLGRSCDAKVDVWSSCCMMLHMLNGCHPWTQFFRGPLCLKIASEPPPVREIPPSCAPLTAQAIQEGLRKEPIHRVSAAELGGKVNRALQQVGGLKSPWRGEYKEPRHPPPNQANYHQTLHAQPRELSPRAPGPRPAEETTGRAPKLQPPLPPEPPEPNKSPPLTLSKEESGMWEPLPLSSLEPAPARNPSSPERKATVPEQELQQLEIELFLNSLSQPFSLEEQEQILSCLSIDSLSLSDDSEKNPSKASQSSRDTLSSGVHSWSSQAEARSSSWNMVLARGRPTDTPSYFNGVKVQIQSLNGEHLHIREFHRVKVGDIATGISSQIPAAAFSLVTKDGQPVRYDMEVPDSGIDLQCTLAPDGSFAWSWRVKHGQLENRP

SMILES | IC50 [1] | IC50 [2] | IC50 [3] | EC50 (LP-1 cells; Homo sapiens, LP-1, 72 h) | EC50 (L-363 cells; Homo sapiens, L-363, 72 h) | EC50 (JJN-3 cells; Homo sapiens, JJN-3, 72 h) | EC50 (LP-1 cells) | EC50 (L-363 cells) | EC50 (JJN-3 cells)
CC(C)(O)C#Cc1cc2c(-c3nc(N)ncc3C#N)cn(CC(C)(C)O)c2cn1 [Compound 60] | 8.4 nM | 11 nM | 19 nM | 14000 nM | 150 nM | 170 nM |  |  | 
CC(C)(O)C#Cc1cc2c(-c3nc(N)ncc3Cl)cn(CC(C)(C)O)c2cn1 [Compound 24] | 8.7 nM | 15 nM | 13 nM | 760 nM | 96 nM | 140 nM |  |  | 
COCCn1cc(-c2nc(N)ncc2Cl)c2cc(C#CC(C)(C)O)ncc21 [Compound 25] | 9.9 nM | 20 nM | 11 nM | 190 nM | 63 nM | 110 nM |  |  | 
CC(C)(O)C#Cc1cc2c(-c3nc(N)ncc3F)c[nH]c2cn1 [Compound 45] | 3.9 nM | 2 nM | 12 nM | 590 nM | 90 nM | 22 nM |  |  | 
COCCn1cc(-c2ccnc(N)n2)c2cc(C#CC(C)(O)c3ncco3)ncc21 (centres unmarked) [Compound 31] | 36 nM | 79 nM | 110 nM | > 10000 nM | 6400 nM | 1900 nM |  |  | 
CC(C)n1cc(-c2ccnc(N)n2)c2cc(C#CC3(O)CCCC3)ncc21 [Compound 18] | 3.7 nM | 8 nM | 47 nM | 1500 nM | 450 nM | 340 nM |  |  | 
CC(C)(O)C#Cc1cc2c(-c3ccnc(N)n3)cn(CCN3CC(=O)NC3=O)c2cn1 [Compound 116] | 120 nM | 170 nM | 5300 nM | > 10000 nM | 11000 nM | 5600 nM |  |  | 
CN(C)C(=O)CCn1cc(-c2ccnc(N)n2)c2cc(C#CC(C)(C)O)ncc21 [Compound 50] | 140 nM | 230 nM | 650 nM | > 10000 nM | 7500 nM | 2700 nM |  |  | 
CC(C)(O)C#Cc1cc2c(-c3ccnc(N)n3)cn(C3COC3)c2cn1 [Compound 65] | 15 nM | 54 nM | 140 nM | 7000 nM | 400 nM | 470 nM |  |  | 
CC(O)(C#Cc1cc2c(-c3nc(N)ncc3F)cn(C3COC3)c2c(C2CC2)n1)C1CC1 (centres unmarked) [Compound 98] |  | 220 nM | 110 nM | 210 nM | 42 nM | 78 nM |  |  | 
CC(C)n1cc(-c2ccnc(N)n2)c2cc(C#CC(C)(C)O)ncc21 [Compound 15] | 4.8 nM | 12 nM | 16 nM | 370 nM | 44 nM | 120 nM |  |  | 
Cc1cnc(N)nc1-c1c[nH]c2cnc(C#CC(C)(C)O)cc12 [Compound 112] | 6.3 nM | 17 nM | 140 nM | 14000 nM | 1300 nM | 440 nM |  |  | 
CC(C)(O)C#Cc1cc2c(-c3ccnc(N)n3)cn(CCO)c2cn1 [Compound 12] | 7.4 nM | 3 nM | 150 nM | 12000 nM | 1200 nM | 1300 nM |  |  | 
CN(C)C(=O)Cn1cc(-c2ccnc(N)n2)c2cc(C#CC(C)(C)O)ncc21 [Compound 30] | 120 nM | 930 nM | 1700 nM | > 10000 nM | 24000 nM | 12000 nM |  |  | 
CN(C)C(=O)n1cc(-c2nc(N)ncc2F)c2cc(C#CC(C)(O)C3CC3)ncc21 (centres unmarked) [Compound 103] |  | 13 nM | 49 nM | 680 nM | 48 nM | 91 nM |  |  | 
COCCCn1cc(-c2nc(N)ncc2F)c2cc(C#CC(C)(C)O)ncc21 [Compound 76] |  | 16 nM | 12 nM | 300 nM | 110 nM | 140 nM |  |  | 
COCCCn1cc(-c2nc(N)ncc2F)c2cc(C#CC(C)(O)C3CC3)ncc21 (single isomer, unassigned) [Compound 120] |  | 17 nM | 20 nM |  |  |  | 200 nM | 74 nM | 95 nM

Continued, in another order:

IC50 [1] | IC50 [2] | IC50 [3] | SMILES | EC50 (LP-1 cells; Homo sapiens, LP-1, 72 h) | EC50 (L-363 cells; Homo sapiens, L-363, 72 h) | EC50 (JJN-3 cells; Homo sapiens, JJN-3, 72 h) | EC50 (LP-1 cells) | EC50 (L-363 cells) | EC50 (JJN-3 cells)
5.8 nM | 52 nM | 240 nM | CC(C)(O)C#Cc1cc2c(-c3ccnc(N)n3)cn(C(C)(C)CO)c2cn1 [Compound 66] | 7600 nM | 270 nM | 250 nM |  |  | 
2.3 nM | 11 nM | 68 nM | CC(C)(O)C#Cc1cc2c(-c3ccnc(N)n3)cn(CC3CCOC3)c2cn1 (centres unmarked) [Compound 6] | 3000 nM | 790 nM | 860 nM |  |  | 
120 nM | 150 nM | 470 nM | CCC(O)(C#Cc1cc2c(-c3ccnc(N)n3)cn(CCOC)c2cn1)CC [Compound 35] | 3800 nM | 3000 nM | 2000 nM |  |  | 
 | 900 nM | 32 nM | CN1CC(n2cc(-c3nc(N)ncc3F)c3cc(C#CC(C)(O)C4CC4)nc(C4CC4)c32)C1 (centres unmarked) [Compound 102] | 65 nM | 21 nM | 35 nM |  |  | 
76 nM | 42 nM | 160 nM | CN1CC(n2cc(-c3ccnc(N)n3)c3cc(C#CC(C)(C)O)ncc32)C1 [Compound 34] | 4100 nM | 240 nM | 330 nM |  |  | 
15 nM | 34 nM | 75 nM | CC(C)(O)C#Cc1cc2c(-c3ccnc(N)n3)cn(CC(C)(C)O)c2cn1 [Compound 3] | 11000 nM | 230 nM | 500 nM |  |  | 
15 nM | 210 nM | 540 nM | CC(C)(O)C#Cc1cc2c(-c3ccnc(N)n3)cn(CCN3CCOCC3)c2cn1 [Compound 7] | 3200 nM | 1900 nM | 1900 nM |  |  | 
28 nM | 130 nM | 51 nM | CN1CC(n2cc(-c3nc(N)ncc3F)c3cc(C#CC(C)(C)O)ncc32)C1 [Compound 70] | 3000 nM | 120 nM | 210 nM |  |  | 
17 nM | 86 nM | 900 nM | CC(C)(O)Cn1cc(-c2ccnc(N)n2)c2cc(C#CC(C)(O)c3ccccc3)ncc21 (centres unmarked) [Compound 36] | 12000 nM | 7900 nM | 1700 nM |  |  | 
25 nM | 70 nM | 360 nM | CC(C)(O)Cn1cc(-c2ccnc(N)n2)c2cc(C#CC(C)(O)c3nccs3)ncc21 (centres unmarked) [Compound 27] | > 10000 nM | > 10000 nM | 9700 nM |  |  | 
 | 21 nM | 70 nM | CC(O)(C#Cc1cc2c(-c3nc(N)ncc3F)cn(C3COC3)c2cn1)C1CC1 (centres unmarked) [Compound 97] | 1200 nM | 100 nM | 170 nM |  |  | 
 | 26 nM | 36 nM | CC(O)(C#Cc1cc2c(-c3nc(N)ncc3F)cn(C3COC3)c2cn1)C1CC1 (single isomer, unassigned) [Compound 122] |  |  |  | 310 nM | 69 nM | 100 nM
